Assay results reported in patent US9834558B2, “Substituted bridged urea analogs as sirtuin modulators” (GLAXOSMITHKLINE LLC, priority 2013, dated 2017).
Structures can show the parent of a compound that is named as a salt. Where two headings read alike, the source gives them in different places.

Biological target: T1, SIRT1 (Homo sapiens, UniProt Q96EB6)
T1 sequence (Q96EB6 1-747): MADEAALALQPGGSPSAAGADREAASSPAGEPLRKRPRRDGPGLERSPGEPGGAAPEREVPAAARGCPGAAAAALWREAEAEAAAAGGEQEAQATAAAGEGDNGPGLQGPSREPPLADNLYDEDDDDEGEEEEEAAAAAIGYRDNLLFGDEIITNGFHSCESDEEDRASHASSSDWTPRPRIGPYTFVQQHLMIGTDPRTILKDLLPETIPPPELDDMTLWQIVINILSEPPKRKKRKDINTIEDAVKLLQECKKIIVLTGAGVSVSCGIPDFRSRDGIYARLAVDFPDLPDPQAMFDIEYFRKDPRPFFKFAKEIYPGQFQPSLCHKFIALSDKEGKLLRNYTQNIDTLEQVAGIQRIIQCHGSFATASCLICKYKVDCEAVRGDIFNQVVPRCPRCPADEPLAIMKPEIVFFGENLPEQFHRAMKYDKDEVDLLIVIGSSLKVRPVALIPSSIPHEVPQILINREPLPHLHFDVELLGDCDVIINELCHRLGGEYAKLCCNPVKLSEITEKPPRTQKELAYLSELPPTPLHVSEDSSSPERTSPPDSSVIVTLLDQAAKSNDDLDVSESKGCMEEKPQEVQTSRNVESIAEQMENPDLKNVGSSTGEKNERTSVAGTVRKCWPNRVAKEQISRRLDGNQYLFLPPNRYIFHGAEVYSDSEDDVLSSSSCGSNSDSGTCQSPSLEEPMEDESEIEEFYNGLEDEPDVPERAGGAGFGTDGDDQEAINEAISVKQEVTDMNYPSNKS
Assay: Trp mass spectrometry assay of SIRT1 activation
Format: biochemical
Conditions: for TRP Activity (EC1.5): EC1.5 = concentration that results in 150% activation of SIRT1
In short: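 Activation read-out: mass-spec measurement of O-acetyl-ADP-ribose or deacetylated Trp peptide versus compound-free controls, giving EC1.5 and Percent Maximum Activation. Reactions ran 25 min at 25 °C, pH 7.5, with 120 μM βNAD+, 0.5 μM acetylated p53-derived peptide and 10 nM His-tagged SIRT1.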

[1] = Trp mass spectrometry assay, EC1.5 = concentration of test compound that results in 150% activation of SIRT1
[2] = Trp mass spectrometry assay, concentration of test compound giving 150% activation of SIRT1
[3] = Trp peptide assay, maximum activity relative to control (100%), read-out: TRP MAX RESP (percent maximum fold activation)
[4] = concentration giving 150% activation of SIRT1, Trp peptide substrate
[5] = Trp peptide substrate, concentration giving 150% activation of SIRT1

Cc1ccncc1-c1ccc2c(n1)N(C(=O)Nc1ccncn1)[C@H]1CCCN2C1 [Example 518]
Tryp AVG EC1.5 (μM) [1]: C (C (EC1.5>25 μM))

O=C(Nc1cnccn1)N1c2nc(-c3cncc(F)c3)ccc2N2CC[C@H]1C2 [Example 400]
Tryp AVG EC1.5 (μM) [2]: B (B (EC1.5 1-25 μM))

Cc1cc(-c2ccc3c(n2)N(C(=O)Nc2cnccn2)[C@H]2CCN3C2)cnc1C [(9S)-5-(5,6-dimethylpyridin-3-yl)-N-(pyrazin-2-yl)-1,6,8-triazatricyclo[7.2.1.0 {2,7}]dodeca-2(7),3,5-triene-8-carboxamide]
TRP Activity (EC1.5) (Trp peptide assay): A (A (EC1.5<1 μM))
Emax [3]: > 150%

O=C(Nc1ccncn1)N1c2nc(-c3cncc(Cl)c3)ccc2N2CCC1CC2 [Example 576]
Tryp AVG EC1.5 (μM) [1]: B (B (EC1.5 1-25 μM))

O=C(Nc1cccc(CN2CCNCC2)c1)N1c2nc(-c3cccc(C(F)(F)F)c3)ccc2N2CC[C@H]1C2 [Example 731]
Tryp AVG EC1.5 (μM) [4]: A (A (EC1.5<1 μM))

Cn1ccc(-c2ccc3c(n2)N(C(=O)Nc2cnccn2)[C@H]2CCN3C2)n1 [(9S)-5-(1-methyl-1H-pyrazol-3-yl)-N-(pyrazin-2-yl)-1,6,8-triazatricyclo[7.2.1.0 {2,7}]dodeca-2(7),3,5-triene-8-carboxamide]
TRP Activity (EC1.5) (Trp peptide assay): B (B (EC1.5 1-25 μM))
Emax [3]: > 150%

CC(C)(C)OC(=O)NCc1cn(-c2cccc(NC(=O)N3c4nc(-c5cccc(C(F)(F)F)c5)ccc4N4CC[C@H]3C4)c2)nn1 [Example 605]
Tryp AVG EC1.5 (μM) [1]: A (A (EC1.5<1 μM))

O=C(Nc1ccncc1)N1c2nc(N3CCCC(C(F)(F)F)C3)ccc2N2CCC[C@H]1C2 (some centres unmarked) [Example 360]
Tryp AVG EC1.5 (μM) [2]: A (A (EC1.5<1 μM))

Cc1cc(-c2ccc3c(n2)N(C(=O)Nc2ccc4[nH]cnc4n2)[C@H]2CCN3C2)ccn1 [(9S)-N-{1H-imidazo[4,5-b]pyridin-5-yl}-5-(2-methylpyridin-4-yl)-1,6,8-triazatricyclo[7.2.1.0 {2,7}]dodeca-2(7),3,5-triene-8-carboxamide]
TRP Activity (EC1.5) (Trp peptide assay): B (B (EC1.5 1-25 μM))
Emax [3]: > 150%

COc1cc(NC(=O)N2c3nc(-c4cncc(C(F)(F)F)c4)ccc3N3CCC[C@H]2C3)ncn1 [Example 394]
Tryp AVG EC1.5 (μM) [2]: A (A (EC1.5<1 μM))

O=C(Nc1ccncc1F)N1c2nc(-c3cccc(CC(O)CO)c3)ccc2N2CC[C@H]1C2 (some centres unmarked) [Example 357]
Tryp AVG EC1.5 (μM) [2]: B (B (EC1.5 1-25 μM))

O=C(NCc1ncc(-c2cccc(NC(=O)N3c4nc(-c5cccc(C(F)(F)F)c5)ccc4N4CC[C@H]3C4)c2)o1)OCc1ccccc1 [Example 706]
Tryp AVG EC1.5 (μM) [4]: A (A (EC1.5<1 μM))

Cc1nn(C)cc1NC(=O)N1c2nc(-c3cccc(C(F)(F)F)c3)ccc2N2CC[C@H]1C2 [Example 92]
Tryp AVG EC1.5 (μM) [5]: B (B (EC1.5 1-25 μM))

O=C(Nc1cccc(-c2cnco2)c1)N1c2nc(-c3cccc(Cl)c3)ccc2N2CCC1CC2 [Example 497]
Tryp AVG EC1.5 (μM) [1]: A (A (EC1.5<1 μM))

Cc1ccc(-c2cccc(NC(=O)N3c4nc(-c5cccc(C(F)(F)F)c5)ccc4N4CC[C@H]3C4)c2)cc1C [Example 619]
Tryp AVG EC1.5 (μM) [1]: C (C (EC1.5>25 μM))

CC(=O)c1sc(NC(=O)N2c3nc(-c4cccc(C(F)(F)F)c4)ccc3N3CC[C@H]2C3)nc1C [Example 75]
Tryp AVG EC1.5 (μM) [5]: A (A (EC1.5<1 μM))

O=C(C1CC1)N1CCC(c2cccc(NC(=O)N3c4nc(-c5cccc(C(F)(F)F)c5)ccc4N4CC[C@H]3C4)c2)C1 (some centres unmarked) [Example 637]
Tryp AVG EC1.5 (μM) [4]: A (A (EC1.5<1 μM))

O=C(Nc1ccccn1)N1c2nc(-c3cccc(CC(O)CO)c3)ccc2N2CC[C@H]1C2 (some centres unmarked) [Example 354]
Tryp AVG EC1.5 (μM) [2]: A (A (EC1.5<1 μM))

Cc1cc(-c2ccc3c(n2)N(C(=O)Nc2cccc4nnc(C)cc24)[C@H]2CCN3C2)ccn1 [(9S)-N-(3-methylcinnolin-5-yl)-5-(2-methylpyridin-4-yl)-1,6,8-triazatricyclo[7.2.1.0 {2,7}]dodeca-2(7),3,5-triene-8-carboxamide]
TRP Activity (EC1.5) (Trp peptide assay): B (B (EC1.5 1-25 μM))
Emax [3]: > 150%

Cc1cncc(-c2ccc3c(n2)N(C(=O)Nc2ccncn2)[C@H]2CCCN3C2)c1 [Example 517]
Tryp AVG EC1.5 (μM) [1]: A (A (EC1.5<1 μM))

COc1cc(NC(=O)N2c3nc(-c4cncc(F)c4)ccc3N3CCC2CC3)nc(OC)n1 [Example 578]
Tryp AVG EC1.5 (μM) [1]: B (B (EC1.5 1-25 μM))

O=C(Nc1ccc(-n2cncn2)cc1)N1c2nc(-c3cncc(C(F)(F)F)c3)ccc2N2CC[C@H]1C2 [Example 580]
Tryp AVG EC1.5 (μM) [1]: A (A (EC1.5<1 μM))
Emax (Trp mass spectrometry assay, percent maximum fold activation of SIRT1, read-out: Tryp % Fold Act): > 150%

O=C(NCCc1ccccc1)N1c2nc(-c3cccc(C(F)(F)F)c3)ccc2N2CC[C@H]1C2 [Example 598]
Tryp AVG EC1.5 (μM) [1]: B (B (EC1.5 1-25 μM))

O=C(Nc1ccccn1)N1c2nc(N3CC[C@H](C(F)(F)F)C3)ccc2N2CCC[C@H]1C2 [drawing 1225, (9S)-N-(pyridin-2-yl)-5-[(3S)-3-(trifluoromethyl)pyrrolidin-1-yl]-1,6,8-triazatricyclo[7.3.1.0 {2,7}]trideca-2(7),3,5-triene-8-carboxamide hydrochloride]
TRP Activity (EC1.5) (Trp peptide assay, hydrochloride): A (A (EC1.5<1 μM))
Emax [3]: > 150%

N#Cc1cncc(-c2ccc3c(n2)N(C(=O)Nc2ccncn2)[C@H]2CCCN3C2)c1 [Example 558]
Tryp AVG EC1.5 (μM) [1]: B (B (EC1.5 1-25 μM))

O=C(Nc1cccc(-c2cccnc2)n1)N1c2nc(-c3cccc(C(F)(F)F)c3)ccc2N2CC[C@H]1C2 [Example 655]
Tryp AVG EC1.5 (μM) [4]: A (A (EC1.5<1 μM))

Cc1cc(-c2ccc3c(n2)N(C(=O)N2CC[C@@H](C)C2)[C@H]2CCN3C2)ccn1 [(9S)-5-(2-methylpyridin-4-yl)-8-{[(3R)-3-methylpyrrolidin-1-yl]carbonyl}-1,6,8-triazatricyclo[7.2.1.0 {2,7}]dodeca-2,4,6-triene]
TRP Activity (EC1.5) (Trp peptide assay): C (C (EC1.5>25 μM))
Emax [3]: < 150%

COc1ccc(C)nc1NC(=O)N1c2nc(-c3cccc(C(F)(F)F)c3)ccc2N2CC[C@H]1C2 [Example 77]
Tryp AVG EC1.5 (μM) [5]: B (B (EC1.5 1-25 μM))

COc1cc(NC(=O)N2c3nc(-c4cccc(Cl)c4)ccc3N3CCC2CC3)nc(OC)n1 [Example 523]
Tryp AVG EC1.5 (μM) [1]: A (A (EC1.5<1 μM))

COc1cncc(-c2ccc3c(n2)N(C(=O)Nc2ccccn2)[C@H]2CCN3C2)c1 [Example 346]
Tryp AVG EC1.5 (μM) [2]: B (B (EC1.5 1-25 μM))

CC(=O)O[C@@H]1CN2C[C@H]1N(C(=O)Nc1ccccn1)c1nc(-c3cccc(C(F)(F)F)c3)ccc12 [Example 602]
Tryp AVG EC1.5 (μM) [1]: B (B (EC1.5 1-25 μM))

O=C(Nc1cccc(-c2cnco2)n1)N1c2nc(-c3cccc(C(F)(F)F)c3)ccc2N2CCC[C@H]1C2 [Example 590]
Tryp AVG EC1.5 (μM) [1]: A (A (EC1.5<1 μM))

CC(C)N1CCCN(c2ccc3c(n2)N(C(=O)Nc2ccncn2)[C@H]2CCCN3C2)CC1 [Example 447]
Tryp AVG EC1.5 (μM) [1]: C (C (EC1.5>25 μM))

CS(=O)(=O)c1cccc(-c2ccc3c(n2)N(C(=O)Nc2cnccn2)[C@H]2CCN3C2)c1 [Example 415]
Tryp AVG EC1.5 (μM) [2]: A (A (EC1.5<1 μM))

Cc1cc(-c2ccc3c(n2)N(C(=O)Nc2cnccn2)[C@H]2CCN3C2)c(C)cn1 [(9S)-5-(2,5-dimethylpyridin-4-yl)-N-(pyrazin-2-yl)-1,6,8-triazatricyclo[7.2.1.0 {2,7}]dodeca-2,4,6-triene-8-carboxamide]
TRP Activity (EC1.5) (Trp peptide assay): B (B (EC1.5 1-25 μM))
Emax [3]: > 150%

O=C(Nc1cccnc1)N1c2nc(-c3cccc(C(F)(F)F)c3)ccc2N2CCC[C@H]1C2 [314 (5)]
Tryp AVG EC1.5 (μM) [2]: A (A (EC1.5<1 μM))

O=C(Nc1ccccn1)N1c2nc(-c3cccc(C(F)(F)F)c3)ccc2N2CC[C@@H]1C2 [Example 823]
Tryp AVG EC1.5 (μM) [4]: A (A (EC1.5<1 μM))

O=C(Nc1ccccn1)N1c2nc(N3CC[C@@H](C(F)(F)F)C3)ccc2N2CC[C@H]1C2 [(9S)-N-(pyridin-2-yl)-5-[(3R)-3-(trifluoromethyl)pyrrolidin-1-yl]-1,6,8-triazatricyclo[7.2.1.0^2,7]dodeca-2,4,6-triene-8-carboxamide]
TRP Activity (EC1.5) (Trp peptide assay): A (A (EC1.5<1 μM))
Emax [3]: > 150%

N#Cc1ccc2c(n1)N(C(=O)Nc1cnccn1)[C@H]1CCN2C1 [(9S)-5-cyano-N-(pyrazin-2-yl)-1,6,8-triazatricyclo[7.2.1.0 {2,7}]dodeca-2(7),3,5-triene-8-carboxamide]
TRP Activity (EC1.5) (Trp peptide assay): C (C (EC1.5>25 μM))
Emax [3]: < 150%

COc1cnc(NC(=O)N2c3nc(-c4ccnc(C)c4)ccc3N3CC[C@H]2C3)cn1 [Example 500]
Tryp AVG EC1.5 (μM) [1]: A (A (EC1.5<1 μM))
